MIC, IC50 and MIC90 data for 14 molecules are collected here from ChEMBL document CHEMBL1145767, “Conformational restriction of methionyl tRNA synthetase inhibitors leading to analogues with potent inhibition and excellent gram-positive antibacterial activity” (Bioorg Med Chem Lett, 2003).

Structures are written as SMILES. Values after ≈ are worked out from the molar mass of the structure shown.

What all share (type): functional
The test system of assay [1] is Enterococcus faecalis. The assay is described as follows: Antibacterial activity against Enterococcus faecalis 1.
The test system of assay [2] is Staphylococcus aureus. The assay is described as follows: Inhibitory activity against Staphylococcus aureus MRS.
Assay [3] concerns Staphylococcus aureus. The assay is described as follows: Antibacterial activity against Staphylococcus aureus Oxford.
The test system of assay [4] is Enterococcus faecalis. Put plainly: Antibacterial activity against Enterococcus faecalis.
Assay [5] concerns Enterococcus faecium. Put plainly: Antibacterial activity against Enterococcus faecium.
For assay [6], the system named is Staphylococcus epidermidis. Put plainly: Antibacterial activity against Staphylococcus epidermidis.
Assay [7] deals with Staphylococcus aureus. The assay is described as follows: Antibacterial activity against Staphylococcus aureus.

As for `Oc1cc(NC[C@H]2CCC[C@H]2NCc2ccc(Cl)c(Cl)c2)nc2ccccc12`, the minimal inhibitory concentration (MIC) (commonly the smallest concentration in the dilution series that meets the test's criterion for growth inhibition) amounted to 8 µg/mL (≈ 19.2 µM) in assay [1] and 16 µg/mL (≈ 38.4 µM) in assay [3]. For the same molecule, in assay [2], 18 nM corresponded to half-maximal inhibition (IC50).

Take `Oc1cc(NC[C@@H]2CCC[C@H]2NCc2ccc(Cl)c(Cl)c2)nc2ccccc12`: the MIC in assay [1] was 32 µg/mL (≈ 76.9 µM); in assay [3], greater than 64 µg/mL. Moreover, the IC50 (usually the concentration that gives 50% inhibition) in assay [2] worked out at 700 nM.

With `Oc1cc(N[C@H]2CC[C@H](NCc3ccc(Cl)c(Cl)c3)CC2)nc2ccccc12`, the MIC in assay [1] and in assay [3] was greater than 64 µg/mL throughout. In assay [2], this molecule had an IC50 of 2300 nM.

Regarding `Oc1cc(NC[C@H]2CCC[C@@H]2NCc2ccc(Cl)c(Cl)c2)nc2ccccc12`, the results for the MIC in assay [1] and in assay [3] were 0.125 µg/mL (≈ 0.3 µM) and 1 µg/mL (≈ 2.4 µM), respectively. For the same molecule, in assay [2], the midpoint of inhibition, the IC50, lay at 9 nM.

On to `Oc1cc(NCc2ccccc2NCc2ccc(Cl)c(Cl)c2)nc2ccccc12`, for which the MIC in assay [1] and in assay [3] was greater than 64 µg/mL in each case. Besides, in assay [2], the IC50 came out at 56 nM.

With `Oc1cc(NC[C@H]2OCC[C@@H]2NCc2ccc(Cl)c(Cl)c2)nc2ccccc12`, the minimum inhibitory concentration (MIC) in assay [1] was 4 µg/mL (≈ 9.56 µM); in assay [3] it was 64 µg/mL (≈ 153 µM). Besides, in assay [2], it took 78 nM to reach half-maximal inhibition (IC50).

Regarding `Oc1cc(NC[C@@H]2CCC[C@@H]2NCc2ccc(Cl)c(Cl)c2)nc2ccccc12`, the MIC was 1 µg/mL (≈ 2.4 µM) in assay [1] and 8 µg/mL (≈ 19.2 µM) in assay [3]. Further, the IC50 in assay [2] came to 100 nM.

Regarding `CCOc1c(Br)cc(Br)cc1CN[C@H]1CCC[C@@H]1CNc1cc(O)c2ccccc2n1`, the MIC90 (commonly the lowest concentration that inhibits either 90% of growth or 90% of the strains tested, depending on the study) was 0.03 µg/mL (≈ 0.0546 µM) in assay [4], less than 0.016 µg/mL in assay [5], 0.125 µg/mL (≈ 0.228 µM) in assay [6] and 0.06 µg/mL (≈ 0.109 µM) in assay [7]. The MIC in assay [1] and in assay [3] was less than 0.06 µg/mL in each case. In addition, 7.6 nM corresponded to half-maximal inhibition in assay [2] (IC50).

In the case of `Oc1cc(NC[C@H]2CCC[C@@H]2NCc2cc(Br)cc(Br)c2)nc2ccccc12`, the minimum inhibitory concentration (MIC) in assay [1] and in assay [3] was less than 0.06 µg/mL in each case. The molecule also displayed an IC50 in assay [2] of 10 nM.

Regarding `Oc1cc(N[C@H]2CCC[C@H](NCc3ccc(Cl)c(Cl)c3)C2)nc2ccccc12` (racemic), the MIC in assay [1] and in assay [3] was greater than 64 µg/mL in each case. Further, in assay [2], half-maximal inhibition (IC50) was put at 43 nM.

Take `Oc1cc(NC[C@H]2CC[C@@H]2NCc2ccc(Cl)c(Cl)c2)nc2ccccc12` (racemic): the minimal inhibitory concentration (MIC) in assay [1] was 0.25 µg/mL (≈ 0.621 µM); in assay [3], 2 µg/mL (≈ 4.97 µM). In addition, in assay [2], the IC50 came to 12 nM.

`Oc1cc(NC[C@H]2CC[C@H]2NCc2ccc(Cl)c(Cl)c2)nc2ccccc12` (racemic): the MIC in assay [1] was 16 µg/mL (≈ 39.8 µM); in assay [3], greater than 64 µg/mL. Further, the concentration for half-maximal inhibition (IC50) in assay [2] worked out at 110 nM.

On to `Oc1cc(N[C@@H]2CCC[C@H](NCc3ccc(Cl)c(Cl)c3)C2)nc2ccccc12` (racemic), for which the MIC in assay [1] was found to be 32 µg/mL (≈ 76.9 µM); in assay [3], 64 µg/mL (≈ 154 µM). Further, the midpoint of inhibition in assay [2], the IC50, lay at 150 nM.

Take `Oc1cc(NCC2=CCCC2NCc2ccc(Cl)c(Cl)c2)nc2ccccc12` (racemic): the MIC in assay [1] and in assay [3] was greater than 64 µg/mL in each case. The molecule also returned an IC50 in assay [2] of 10 nM.
